Where a name gives a salt, the structure may show the parent alone.
test system: Trypanosoma brucei rhodesiense; assay: Anti-protozoan data: T.b.r. IC50; assay type: cell-based; details: Tables VI(a), VI(c), read-out: T.b.r. IC50

| SMILES | IC50 [nM] |
| --- | --- |
| N=C(NO)c1ccc(OCCCCCOc2ccc(-c3cc4cc(C(=N)NO)ccc4o3)cc2)cc1 [Compound 183, 2-(4-(5-(4-(N-Hydroxycarbamimidoyl)phenoxy)pentyloxy)phenyl)-N-hydroxybenzofuran-5-carboxamidine] | 1560 |

test system: Plasmodium falciparum; assay: Anti-protozoan data: P. falcip. IC50; assay type: cell-based; details: Tables VI(a), VI(c), read-out: P. falcip. IC50

| SMILES | IC50 [nM] |
| --- | --- |
| N=C(NO)c1ccc(OCCCCCOc2ccc(-c3cc4cc(C(=N)NO)ccc4o3)cc2)cc1 [Compound 183, 2-(4-(5-(4-(N-Hydroxycarbamimidoyl)phenoxy)pentyloxy)phenyl)-N-hydroxybenzofuran-5-carboxamidine] | 291 |

test system: not given; assay: not given; details: not given

| SMILES | melting point |
| --- | --- |
| Cl.Cl.N=C(N)c1ccc(OCCCOc2ccc(-c3cc4ccc(C(=N)N)cc4o3)cc2)cc1 | 294 to 295 °C |
| N=C(NO)c1cccc(-c2cc3ccc(C(=N)NO)cc3o2)c1 (as salt: HCl) [Compound 180, 2-(3-(N-Hydroxycarbamimidoyl)phenyl)-N-hydroxybenzofuran-6-carboxamidine] | 210 °C (dec.) |
| N=C(NO)c1ccc(-c2cc3ccc(C(=N)NO)cc3o2)cc1 (as salt: HCl) [Compound 181, 2-(4-(N-Hydroxycarbamimidoyl)phenyl)-N-hydroxybenzofuran-6-carboxamidine] | 210 °C (dec.) |
| N=C(NO)c1ccc(OCCCOc2ccc(-c3cc4cc(C(=N)NO)ccc4o3)cc2)cc1 (as salt: HCl) [Compound 182, 2-(4-(3-(4-(N-Hydroxycarbamimidoyl)phenoxy)propoxy)phenyl)-N-hydroxybenzofuran-5-carboxamidine] | 204 °C (dec.) |
| N=C(NO)c1ccc(OCCCCCOc2ccc(-c3cc4cc(C(=N)NO)ccc4o3)cc2)cc1 (as salt: HCl) [Compound 183, 2-(4-(5-(4-(N-Hydroxycarbamimidoyl)phenoxy)pentyloxy)phenyl)-N-hydroxybenzofuran-5-carboxamidine] | 202 °C (dec.) |
| N=C(NO)c1ccc2cc(CCCCCc3cc4ccc(C(=N)NO)cc4o3)oc2c1 (as salt: HCl) [Compound 184, 2-(5-(6-(N-Hydroxycarbamimidoyl)benzofuran-2-yl)pentyl)-N-hydroxybenzofuran-6-carboxamidine] | 220 °C (dec.) |
| N=C(NO)c1ccc2oc(CCCc3cc4cc(C(=N)NO)ccc4o3)cc2c1 (as salt: HCl) [Compound 185, 2-(3-(5-(N-Hydroxycarbamimidoyl)benzofuran-2-yl)propyl)-N-hydroxybenzofuran-5-carboxamidine] | 145 to 147 °C (dec.) |
| N=C(NO)c1ccc2oc(CCCCc3cc4cc(C(=N)NO)ccc4o3)cc2c1 (as salt: HCl) [Compound 186, 2-(4-(5-(N-Hydroxycarbamimidoyl)benzofuran-2-yl)butyl)-N-hydroxybenzofuran-5-carboxamidine] | 231 °C (dec.) |
| CONC(=N)c1ccc2cc(CCCCCc3cc4ccc(C(=N)NOC)cc4o3)oc2c1 (as salt: HCl) [Compound 187, 2-(5-(6-(N-Methoxycarbamimidoyl)benzofuran-2-yl)pentyl)-N-methoxybenzofuran-6-carboxamidine] | 230 to 231 °C (dec.) |
| CONC(=N)c1ccc2oc(CCCc3cc4cc(C(=N)NOC)ccc4o3)cc2c1 (as salt: HCl) [Compound 188, 2-(3-(5-(N-Methoxycarbamimidoyl)benzofuran-2-yl)propyl)-N-methoxybenzofuran-5-carboxamidine] | 89 to 90 °C (dec.) |
| CONC(=N)c1ccc2oc(CCCCc3cc4cc(C(=N)NOC)ccc4o3)cc2c1 (as salt: HCl) [Compound 189, 2-(4-(5-(N-Methoxycarbamimidoyl)benzofuran-2-yl)butyl)-N-methoxybenzofuran-5-carboxamidine] | 248 to 250 °C (dec.) |
| N=C(NO)c1ccc2oc(CCCCCc3cc4cc(C(=N)NO)ccc4o3)cc2c1 (as salt: HCl) [Compound 192, 2-(5-(5-(N-Hydroxycarbamimidoyl)benzofuran-2-yl)pentyl)-N-hydroxybenzofuran-5-carboxamidine] | 120 °C (dec.) |
| CONC(=N)c1ccc2oc(CCCCCc3cc4cc(C(=N)NOC)ccc4o3)cc2c1 (as salt: HCl) [Compound 193, 2-(5-(5-(N-Methoxycarbamimidoyl)benzofuran-2-yl)pentyl)-N-methoxybenzofuran-5-carboxamidine] | 118 °C (dec.) |
| c1cc(OCCCCCCOc2ccc(C3=NCCN3)cc2)cc(-c2cc3cc(C4=NCCN4)ccc3o2)c1 (as salt: salt) [Compound 43, 2-(2-(3-(6-(4-(4,5-Dihydro-1H-imidazol-2-yl)phenoxy)hexyloxy)phenyl)benzofuran-5-yl)-4,5-dihydro-1H-imidazole] | 178 to 182 °C |
| Cl.Cl.c1cc(C2=NCCN2)c2cc(Cc3cc4c(C5=NCCN5)cccc4o3)oc2c1 [Compound 3, Bis(4-(4,5-dihydro-1H-imidazol-2-yl)benzofuran-2-yl)methane dihydrochloride] | 333 to 335 °C |
| Cl.Cl.c1cc2oc(Cc3cc4cc(C5=NCCN5)ccc4o3)cc2cc1C1=NCCN1 [Compound 6, Bis(5-(4,5-dihydro-1H-imidazol-2-yl)benzofuran-2-yl)methane dihydrochloride] | 233 to 235 °C |
| Cl.Cl.c1cc2cc(Cc3cc4ccc(C5=NCCN5)cc4o3)oc2cc1C1=NCCN1 [Compound 7, Bis(6-(4,5-dihydro-1H-imidazol-2-yl)benzofuran-2-yl)methane dihydrochloride] | 341 to 343 °C |
| Cl.Cl.c1cc2oc(CCc3cc4cc(C5=NCCN5)ccc4o3)cc2cc1C1=NCCN1 [Compound 10, 4,5-Dihydro-2-(2-(2-(5-(4,5-dihydro-1H-imidazol-2-yl)benzofuran-2-yl)ethyl)benzofuran-5-yl)-1H-imidazole dihydrochloride] | 366 °C (dec.) |
| Cl.Cl.c1cc2cc(CCc3cc4ccc(C5=NCCN5)cc4o3)oc2cc1C1=NCCN1 [Compound 13, 4,5-dihydro-2-(2-(2-(6-(4,5-dihydro-1H-imidazol-2-yl)benzofuran-2-yl)ethyl)benzofuran-6-yl)-1H-imidazole dihydrochloride] | > 360 °C |
| Cl.Cl.c1cc2cc(CCCc3cc4ccc(C5=NCCN5)cc4o3)oc2cc1C1=NCCN1 [Compound 19, 4,5-Dihydro-2-(2-(3-(6-(4,5-dihydro-1H-imidazol-2-yl)benzofuran-2-yl)propyl)benzofuran-6-yl)-1H-imidazole dihydrochloride] | > 300 °C (dec.) |
| Cl.Cl.c1cc2oc(CCCCc3cc4cc(C5=NCCN5)ccc4o3)cc2cc1C1=NCCN1 [Compound 22, 4,5-Dihydro-2-(2-(4-(5-(4,5-dihydro-1H-imidazol-2-yl)benzofuran-2-yl)butyl)benzofuran-5-yl)-1H-imidazole dihydrochloride] | 323 to 324 °C (dec.) |
| Cl.Cl.c1cc2cc(CCCCc3cc4ccc(C5=NCCN5)cc4o3)oc2cc1C1=NCCN1 [Compound 25, 4,5-Dihydro-2-(2-(4-(6-(4,5-dihydro-1H-imidazol-2-yl)benzofuran-2-yl)butyl)benzofuran-6-yl)-1H-imidazole dihydrochloride] | 343 to 345 °C (dec.) |
| Cl.Cl.c1cc2cc(CCCCCc3cc4ccc(C5=NCCN5)cc4o3)oc2cc1C1=NCCN1 [Compound 31, 4,5-Dihydro-2-(2-(5-(6-(4,5-dihydro-1H-imidazol-2-yl)benzofuran-2-yl)pentyl)benzofuran-6-yl)-1H-imidazole dihydrochloride] | 308 to 310 °C (dec.) |

Results, then the compound that gave them:

| melting point | SMILES |
| --- | --- |
| 245 to 246 °C (dec.) | CONC(=N)c1ccc2oc(CCc3cc4cc(C(=N)NOC)ccc4o3)cc2c1 (as salt: HCl) [Compound 191, 2-(2-(5-(N-Methoxycarbamimidoyl)benzofuran-2-yl)ethyl)-N-methoxybenzofuran-5-carboxamidine] |
| 212 to 214 °C | Cl.Cl.N=C(N)c1ccc2oc(Cc3cc4cc(C(=N)N)ccc4o3)cc2c1 [Compound 4, 2-((5-Amidinobenzofuran-2-yl)methyl)benzofuran-5-carboxamidine dihydrochloride] |
| 362 °C (dec.) | Cl.Cl.N=C(N)c1ccc2cc(CCc3cc4ccc(C(=N)N)cc4o3)oc2c1 [Compound 11, 2-(2-(6-Amidinobenzofuran-2-yl)ethyl)benzofuran-6-carboxamidine dihydrochloride] |
| 168 to 170 °C | Cl.Cl.N=C(N)c1ccc2oc(CCCc3cc4cc(C(=N)N)ccc4o3)cc2c1 [Compound 14, 2-(3-(5-Amidinobenzofuran-2-yl)propyl)benzofuran-5-carboxamidine dihydrochloride] |
| 203 to 205 °C | Cl.Cl.c1cc2oc(CCCc3cc4cc(C5=NCCN5)ccc4o3)cc2cc1C1=NCCN1 [Compound 16, 4,5-Dihydro-2-(2-(3-(5-(4,5-dihydro-1H-imidazol-2-yl)benzofuran-2-yl)propyl)benzofuran-5-yl)-1H-imidazole dihydrochloride] |
| > 300 °C (dec.) | Cl.Cl.N=C(N)c1ccc2cc(CCCc3cc4ccc(C(=N)N)cc4o3)oc2c1 [Compound 17, 2-(3-(6-Amidinobenzofuran-2-yl)propyl)benzofuran-6-carboxamidine dihydrochloride] |
| 325 to 327 °C (dec.) | Cl.Cl.N=C(N)c1ccc2oc(CCCCc3cc4cc(C(=N)N)ccc4o3)cc2c1 [Compound 20, 2-(4-(5-Amidinobenzofuran-2-yl)butyl)benzofuran-5-carboxamidine dihydrochloride] |
| 328 to 330 °C (dec.) | Cl.Cl.N=C(N)c1ccc2cc(CCCCc3cc4ccc(C(=N)N)cc4o3)oc2c1 [Compound 23, 2-(4-(6-Amidinobenzofuran-2-yl)butyl)benzofuran-6-carboxamidine dihydrochloride] |
| 155 to 157 °C | Cl.Cl.c1cc2oc(CCCCCc3cc4cc(C5=NCCN5)ccc4o3)cc2cc1C1=NCCN1 [Compound 28, 4,5-Dihydro-2-(2-(5-(5-(4,5-dihydro-1H-imidazol-2-yl)benzofuran-2-yl)pentyl)benzofuran-5-yl)-1H-imidazole dihydrochloride] |
| 243 to 245 °C (dec.) | Cl.Cl.N=C(N)c1ccc2cc(CCCCCc3cc4ccc(C(=N)N)cc4o3)oc2c1 [Compound 29, 2-(5-(6-Amidinobenzofuran-2-yl)pentyl)benzofuran-6-carboxamidine dihydrochloride] |

test system: not listed separately; assay: in vitro; details: not given

| SMILES | IC50 [nM] |
| --- | --- |
| N=C(NO)c1ccc(OCCCCCOc2ccc(-c3cc4cc(C(=N)NO)ccc4o3)cc2)cc1 [Compound 183, 2-(4-(5-(4-(N-Hydroxycarbamimidoyl)phenoxy)pentyloxy)phenyl)-N-hydroxybenzofuran-5-carboxamidine] | 8280 |

— patent publication US20080114047A1 (priority 2003, published 2008)
